Source: patent US20100196355A1, “Immunophilin Ligands and Methods for Modulating Immunophilin and Calcium Channel Activity” (Wyeth, priority 2007, published 2010)

How the values were obtained:
His6-tagged FKBP12 = His6-tagged FKBP12 (Homo sapiens, UniProt P62942); assay: [3H]-FK506 binding on Ni-chelated FLASH plate
Experimental: (§1) Reactions were carried out in triplicate at 25° C. for 30 min. Kd were calculated using methods described by Carreras (Anal. Biochem. 298, 57-61 (2001)).

His6-tagged FKBP52 = biological target: T1, His6-tagged FKBP52 (Homo sapiens, UniProt Q02790); assay: [3H]-FK506 binding on Ni-chelated FLASH plate
T1 construct: made in house
T1 sequence (Q02790 1-459): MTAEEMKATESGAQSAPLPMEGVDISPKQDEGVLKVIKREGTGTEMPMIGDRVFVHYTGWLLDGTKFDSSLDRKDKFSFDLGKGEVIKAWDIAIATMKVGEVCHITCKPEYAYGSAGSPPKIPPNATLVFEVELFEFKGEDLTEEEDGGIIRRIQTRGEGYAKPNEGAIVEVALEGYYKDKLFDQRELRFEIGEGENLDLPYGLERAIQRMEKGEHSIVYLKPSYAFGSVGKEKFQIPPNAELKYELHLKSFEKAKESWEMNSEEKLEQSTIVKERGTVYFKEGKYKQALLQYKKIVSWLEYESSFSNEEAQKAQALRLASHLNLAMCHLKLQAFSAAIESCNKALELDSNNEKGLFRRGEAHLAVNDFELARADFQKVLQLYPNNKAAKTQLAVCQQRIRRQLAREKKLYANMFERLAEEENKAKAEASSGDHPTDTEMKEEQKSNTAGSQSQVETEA
Experimental: as §1

[1] = tested on: rat cortical neuron cultures; assay: Transcriptional profiling of cortical neuron cultures; format: cell-based; settings: 10 μM
Experimental: Cortical neuron cultures were prepared from E16 rat embryos. After plating for 24 hrs, cultures were treated with 10 μM immunophilin ligands and the corresponding vehicle. After treatment for 4 hrs, 12 hrs, 24 hrs and 48 hrs, cells were lysed. Total RNA from each sample was extracted with the RNEASY® Mini Kit (QIAGEN®). Double stranded cDNA was synthesized from 2 μg of each RNA sample using the […]® System (INVITROGEN®), purified, transcribed in vitro to prepare biotinylated cRNA using T7 RNA polymerase in the presence of biotin labeled UTP and CTP. The fragmented cRNAs were hybridized to a Rat Genome 230 2.0 […]® (AFFYMETRIX®, Santa Clara, Calif.) as recommended by the manufacturer. Hybridized arrays were stained according to manufacture protocols on a Fluidics Station 450 and subsequently scanned on an AFFYMETRIX® scanner 3000. The raw data was generated using AFFYMETRIX® MAS 5.0 Software. Transcriptional profiling data were analyzed in Ingenuity.

Chain of His6-tagged FKBP12 (P62942 whole entry): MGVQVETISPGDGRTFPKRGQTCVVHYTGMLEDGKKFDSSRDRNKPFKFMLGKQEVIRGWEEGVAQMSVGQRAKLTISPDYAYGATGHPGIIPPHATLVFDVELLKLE

CO[C@H]1C[C@@H]2CC[C@@H](C)[C@@](O)(O2)C(=O)C(=O)N2CCCCC2C(=O)O[C@H]([C@H](C)C[C@@H]2CC[C@@H](O)[C@H](OC)C2)CC(=O)[C@H](C)/C=C(\C)[C@@H](O)[C@@H](OC)C(=O)[C@H](C)C[C@H](C)C2C=C[C@H](/C=C/1C)ON2c1ccccc1 (stereo partly shown) [Rapamycin analogue I, 9,27-dihydroxy-3-{2-[4-hydroxy-3-methoxycyclohexyl]-1-methylethyl}-10,21-dimethoxy-6,8,12,14,20,26-hexamethyl-37-phenyl-4,9,10,12,13,14,15,18,21,22,23,24,25,26,27,32,33,34,34a-nonadecahydro-3H-23,27-epoxy-18,15-(epoxyimino)pyrido[2,1-c][1,4]oxazacyclohentriacontine-1,5,11,28,29(6H, 31H)-pentone]
Kd (His6-tagged FKBP12): 4.7 ± 0.4 nM
Kd (His6-tagged FKBP52): 0.55 ± 0.05 nM
fold change vs DMSO, ACTA1 ([1]; ACTA1): −1.53 fold
fold change vs DMSO, ACTA2 ([1]; ACTA2): 1.41 fold
fold change vs DMSO, AKAP5 ([1]; AKAP5): −2.56 fold
fold change vs DMSO, ASPH ([1]; ASPH): −3.19 fold
fold change vs DMSO, ATP2A2 ([1]; ATP2A2): 1.85 fold
fold change vs DMSO, ATP2B1 ([1]; ATP2B1): 1.53 fold
fold change vs DMSO, ATP2B3 ([1]; ATP2B3): −1.54 fold
fold change vs DMSO, ATP2C1 ([1]; ATP2C1): −1.38 fold
fold change vs DMSO, CABIN1 ([1]; CABIN1): 1.33 fold
fold change vs DMSO, CACNA1B ([1]; CACNA1B): −1.77 fold
fold change vs DMSO, CACNA1C ([1]; CACNA1C): 1.48 fold
fold change vs DMSO, CACNA1D ([1]; CACNA1D): −1.72 fold
fold change vs DMSO, CACNA2D1 ([1]; CACNA2D1): 3.47 fold
fold change vs DMSO, CACNB1 ([1]; CACNB1): −1.32 fold
fold change vs DMSO, CACNG2 ([1]; CACNG2): −1.8 fold
fold change vs DMSO, CACNG3 ([1]; CACNG3): −3.73 fold
fold change vs DMSO, CALM1 ([1]; CALM1): −1.74 fold
fold change vs DMSO, CALM2 ([1]; CALM2): −1.22 fold
fold change vs DMSO, CALM3 ([1]; CALM3): −1.34 fold
fold change vs DMSO, CALR ([1]; CALR): 1.18 fold
fold change vs DMSO, CAMK1 ([1]; CAMK1): −1.6 fold
fold change vs DMSO, CAMK1G ([1]; CAMK1G): −2.47 fold
fold change vs DMSO, CAMK2A ([1]; CAMK2A): −2.03 fold
fold change vs DMSO, CAMK2B ([1]; CAMK2B): −1.82 fold
fold change vs DMSO, CAMK2D ([1]; CAMK2D): −1.45 fold
fold change vs DMSO, CAMK4 ([1]; CAMK4): −1.42 fold
fold change vs DMSO, CHP ([1]; CHP): 1.65 fold
fold change vs DMSO, CREBBP ([1]; CREBBP): 4.14 fold
fold change vs DMSO, CYP27B1 ([1]; CYP27B1): −1.27 fold
fold change vs DMSO, DHCR7 ([1]; DHCR7): 1.84 fold
fold change vs DMSO, DSCR1 ([1]; DSCR1): −1.93 fold
fold change vs DMSO, DSCR1L1 ([1]; DSCR1L1): −4.44 fold
fold change vs DMSO, EBP ([1]; EBP): 1.45 fold
fold change vs DMSO, FDFT1 ([1]; FDFT1): 1.94 fold
fold change vs DMSO, FDPS ([1]; FDPS): 2.34 fold
fold change vs DMSO, GRIA1 ([1]; GRIA1): −2.78 fold
fold change vs DMSO, GRIA2 ([1]; GRIA2): 2.74 fold
fold change vs DMSO, GRIN1 ([1]; GRIN1): −2.41 fold
fold change vs DMSO, GRIN2B ([1]; GRIN2B): −1.94 fold
fold change vs DMSO, GRIN3A ([1]; GRIN3A): −1.84 fold
fold change vs DMSO, GRINA ([1]; GRINA): −1.21 fold
fold change vs DMSO, HDAC5 ([1]; HDAC5): 1.78 fold
fold change vs DMSO, HDAC6 ([1]; HDAC6): −1.18 fold
fold change vs DMSO, HDAC7A ([1]; HDAC7A): 1.24 fold
fold change vs DMSO, HMGCR ([1]; HMGCR): 2.24 fold
fold change vs DMSO, HTR3A ([1]; HTR3A): −1.57 fold
fold change vs DMSO, IDI1 ([1]; IDI1): 3.24 fold
fold change vs DMSO, ITPR3 ([1]; ITPR3): −1.85 fold
fold change vs DMSO, LSS ([1]; LSS): 13.3 fold
fold change vs DMSO, MAPK1 ([1]; MAPK1): 1.29 fold
fold change vs DMSO, MAPK3 ([1]; MAPK3): −1.31 fold
fold change vs DMSO, MVD ([1]; MVD): 1.94 fold
fold change vs DMSO, MVK ([1]; MVK): 1.6 fold
fold change vs DMSO, MYH1 ([1]; MYH1): −2.18 fold
fold change vs DMSO, MYH6 ([1]; MYH6): −7.18 fold
fold change vs DMSO, MYH7 ([1]; MYH7): −6.11 fold
fold change vs DMSO, MYL6B ([1]; MYL6B): −1.69 fold
fold change vs DMSO, NQO1 ([1]; NQO1): 1.8 fold
fold change vs DMSO, PMVK ([1]; PMVK): 1.33 fold
fold change vs DMSO, PPP3CB ([1]; PPP3CB): −1.3 fold
fold change vs DMSO, PPP3CC ([1]; PPP3CC): −1.18 fold
fold change vs DMSO, PPP3R1 ([1]; PPP3R1): −1.49 fold
fold change vs DMSO, PRKAG1 ([1]; PRKAG1): −1.21 fold
fold change vs DMSO, PRKAR1A ([1]; PRKAR1A): 1.08 fold
fold change vs DMSO, PRKAR1B ([1]; PRKAR1B): −3.36 fold
fold change vs DMSO, PRKAR2A ([1]; PRKAR2A): −1.56 fold
fold change vs DMSO, PRKAR2B ([1]; PRKAR2B): −1.56 fold
fold change vs DMSO, RAP1B ([1]; RAP1B): −1.29 fold
fold change vs DMSO, SC5DL ([1]; SC5DL): 2.01 fold
fold change vs DMSO, SQLE ([1]; SQLE): 1.92 fold
fold change vs DMSO, TPM1 ([1]; TPM1): −2.55 fold
fold change vs DMSO, TPM3 ([1]; TPM3): −2.04 fold
fold change vs DMSO, TRPC1 ([1]; TRPC1): −1.21 fold
fold change vs DMSO, TRPC3 ([1]; TRPC3): −2.4 fold
fold change vs DMSO, TRPC4 ([1]; TRPC4): −4.56 fold
fold change vs DMSO, TRPV6 ([1]; TRPV6): 1.65 fold
fold change, PLAU ([1]; plasminogen activator (PLAU)): −40 fold
